Experimental data reported in patent publication US10053455B2, “Diazaspiroalkaneone-substituted oxazole derivatives as spleen tyrosine kinase inhibitors” (AB SCIENCE, priority 2014, dated 2018).

How the values were obtained:
KIT D816V = KIT D816V (Homo sapiens (Human), UniProt P10721, D816V); assay: Cell-based proliferation assay on BaF3 model, KIT D816V
Method: Cell-based proliferation and viability assay CellTiter-Bleue cell-based survival/proliferation assay (Promega G8080) was performed on BaF3 models.
A total of 1.10^4 cells/well/50 μl were seeded in a 96-wells plate. Treatment was initiated by addition of a 2× drug solution of ½ serial dilutions ranging from 0 to 10 μM. Cells were grown for 48-72 h at 37° C. and then incubated with 10 μl/well of Promega CellTiter-Bleue reagent for 4 h at 37° C. The amount of formazan dye formed was quantified by its absorbance at 450 nm using a scanning multiwell spectrophotometer (POLARstar Omega, BMG labtech, France). A blank well without cells was used as a background control for the spectrophotometer and all assays were performed in duplicates and the experiments were repeated at least twice.

Btk = Btk (Homo sapiens (Human), UniProt Q06187); assay: HTRF kinase assay, Btk; assay type: biochemical; details: enzymatic determination
Chain of Btk (Q06187 whole entry, species assumed): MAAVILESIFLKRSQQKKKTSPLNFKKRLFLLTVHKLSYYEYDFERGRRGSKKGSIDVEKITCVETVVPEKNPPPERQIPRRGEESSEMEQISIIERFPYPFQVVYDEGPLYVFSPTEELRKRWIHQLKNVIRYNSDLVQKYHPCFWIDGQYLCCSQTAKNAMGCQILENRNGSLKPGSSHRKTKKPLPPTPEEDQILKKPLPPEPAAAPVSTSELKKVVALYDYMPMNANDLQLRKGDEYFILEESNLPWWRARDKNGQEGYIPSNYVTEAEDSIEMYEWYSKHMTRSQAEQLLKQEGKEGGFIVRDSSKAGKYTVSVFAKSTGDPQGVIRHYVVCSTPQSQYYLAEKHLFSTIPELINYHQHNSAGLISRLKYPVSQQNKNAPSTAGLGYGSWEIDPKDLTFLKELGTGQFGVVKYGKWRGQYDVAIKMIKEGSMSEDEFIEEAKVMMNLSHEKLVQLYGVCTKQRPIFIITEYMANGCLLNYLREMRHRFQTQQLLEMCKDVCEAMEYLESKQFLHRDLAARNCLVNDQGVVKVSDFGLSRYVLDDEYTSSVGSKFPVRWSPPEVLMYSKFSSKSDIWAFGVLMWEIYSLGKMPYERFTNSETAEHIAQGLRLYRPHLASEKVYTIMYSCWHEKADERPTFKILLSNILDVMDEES
Method: Most of the kinases tested in this study were cloned, expressed and purified in the facilities of the inventors. They were expressed either as N-terminus hexahistidine-, hexahistidine-asparagine- or GST-tagged enzymes in a baculovirus or in a Colibacille expression system. Remaining enzymes (JAKs) were purchased from Millipore or Proqinase. For each enzyme, steady state kinetic parameters were determined and validated with known inhibitors.
The analysis of the effect of compounds on kinase activity was assessed with the HTRF® KinEASE assay (Cisbio International), an immuno-assay based on the quantification of the level of phosphorylation of a biotinylated peptide substrate using anti-phospho-specific antibody labeled with Europium (Eu^3+) cryptate. This assay comprises two steps: —an enzymatic step, during which the peptide substrate, the kinase, ATP, Mg^2+ and/or Mn^2+ are incubated with varying concentration of drug (from 0 to 10 μM); —a detection step, at the end of the reaction (stopped by addition of EDTA which chelates Mg^2+), the antibody anti-phospho peptide-Eu^3+ (emission 620 nm) and streptavidin XL-665 (emission 665 nm) are added to the reaction mix. […] Results are expressed in delta fluorescence (DF) unit defined as follow DF %=[(ratio−ratio blank)/(ratio blank)]*100, where ratio=(665 nm/620 nm)*10^4. […]

IL6 = assay: FcεRI and Kit-induced IL6 cytokine release in BMMCs; assay type: cell-based, C57BL/6J mice
Method: Murine bone marrow mast cells (BMMCs) are obtained by flushing bone marrow cells from the femurs of C57BL/6J mice, and then cultured for 3-4 weeks in RPMI containing mouse recombinant IL-3 (30 ng/ml). Cells were sensitized overnight in IL3-depleted culture medium with 0.1-0.2 μg/ml anti-DNP-IgE (Sigma-Aldrich D8406). Cells were preincubated with inhibitors for 30 min, and then stimulated with 10 ng/ml antigen (Ag) and/or Stem Cell Factor (SCF) (30 ng/ml). The cells were incubated for 6 h. The supernatants were harvested, and the cytokine content measured using CISBIO IL6 and TNFα HTRF assay (cat#63ADKEBU043 and 6FMTNPEB respectively).

murine model of asthma = assay: Mouse model of asthma: eosinophils recruitment in bronchio-alveolar lavage; assay type: in vivo, Balb/c male mice
Method: Balb/c male mice, 8 weeks old, were purchased from Janvier (Le Genest-Saint-Isle; FRANCE) and bred in the animal facility for 4 weeks. Drugs were dissolved in drinking solvent (80% water; 10% Tween 80 and 10% isopropanediol). It was aliquoted and stored at −20° C. Each mouse received drugs twice a day. The weight of animals was calculated before and after treatment.
Mice, 9 weeks of age, were sensitized with 50 μg of ovalbumin (Sigma-Aldrich, Germany) adsorbed to 2 mg Al(OH)3 (Prolabo, France) and diluted in physiological saline (0.9% NaCl). Ovalbumin was injected intraperitoneally on days 1 and 7. Sensitization was followed by intranasal challenges with 10 μg of ovalbumin diluted in 0.9% NaCl, each day from day 18 to day 21. On days 17 to 21, animals treated with drugs received 100 μl of a solution at 15 mg/ml, at 7.5 mg/ml or at 3.75 mg/ml administered per os twice a day during 5 days. These treatments corresponded to concentration of 60 mg/mouse kg, 30 mg/mouse kg and 15 mg/mouse kg respectively.
Bronchio-alveolar lavage (BAL) was performed after the animals were disconnected from the FlexiVent®. The airways were lavaged with 5 ml (10 times 0.5 ml) ice cold 0.9% NaCl 2.6 mM EDTA. BAL samples were centrifuged at 1200 rpm for 5 minutes at 4° C. Pellet cells were collected and erythrocytes lysed by adding 1.5 ml deionized water for 30 seconds. After neutralization with 0.5 ml of 0.6M KCl, cells were centrifuged at 1200 rpm for 5 minutes at 4° C. BAL samples were used to count the total cell number and to perform cytospins (shandon, Pontoise). Cell types were identified by morphological criteria after Hemacolor (Merck) staining.
Mice were sensitized and challenged with ovalbumin as described in protocol assays above. The mice were distributed in groups of 5-6 animals that were treated twice daily with 7.5 to 60 mg/Kg of anti-SYK/KIT drugs (PO).

human cardiomyocytes = assay: Intracellular ROS in human cardiomyocytes (CM-H2DCFDA); assay type: cell-based; details: 10 μM, 8 hours
Method: 2×10^3 human cardiomyocytes (Promocell C-12810) or 4×10^4 rat neonatal cardiac myocytes (R-CM-561 Lonza) were seeded per well of a 96-well plate (black wall for fluorimetry usage (655090 Greiner Bio one)) 24 hours before drug treatment. Treatment was initiated by addition of a drug solution for a 10 μM final concentration. Doxorubicin was used at 5 μM as positive control for the induction of ROS. After 8 hours treatment with drugs, cells were loaded with 10 μM of CM-H2DCFDA (C6827 Invitrogen) for 1 hour, followed by 2 washes in PBS. CM-H2DCFDA is a membrane permeable reagent that can be enzymatically converted to dichlorodihydrofluorescein (DCF) in the presence of ROS. Fluorescent DCF was detected using a fluorescence spectrophotometer (BMG Labtech) with excitation of 485 nm and emission of 560 nm. The results were expressed as a relative percent of DCF-fluorescence in control cells.
Monitoring drug-induced increase in the production of reactive oxygen species (ROS) in cardiomyocyte may be important to predict the cardiotoxic side effects of a drug (Table 11). The production of ROS in human and rat cardiomyocytes was studied following 8 hours drug treatment at concentration of 10 μM. The results were expressed as a percent relative to the production of ROS induced by the cardiotoxic chemotherapeutic agent doxorubicin (100%).

Chain of KIT D816V (P10721 26-976 D816V): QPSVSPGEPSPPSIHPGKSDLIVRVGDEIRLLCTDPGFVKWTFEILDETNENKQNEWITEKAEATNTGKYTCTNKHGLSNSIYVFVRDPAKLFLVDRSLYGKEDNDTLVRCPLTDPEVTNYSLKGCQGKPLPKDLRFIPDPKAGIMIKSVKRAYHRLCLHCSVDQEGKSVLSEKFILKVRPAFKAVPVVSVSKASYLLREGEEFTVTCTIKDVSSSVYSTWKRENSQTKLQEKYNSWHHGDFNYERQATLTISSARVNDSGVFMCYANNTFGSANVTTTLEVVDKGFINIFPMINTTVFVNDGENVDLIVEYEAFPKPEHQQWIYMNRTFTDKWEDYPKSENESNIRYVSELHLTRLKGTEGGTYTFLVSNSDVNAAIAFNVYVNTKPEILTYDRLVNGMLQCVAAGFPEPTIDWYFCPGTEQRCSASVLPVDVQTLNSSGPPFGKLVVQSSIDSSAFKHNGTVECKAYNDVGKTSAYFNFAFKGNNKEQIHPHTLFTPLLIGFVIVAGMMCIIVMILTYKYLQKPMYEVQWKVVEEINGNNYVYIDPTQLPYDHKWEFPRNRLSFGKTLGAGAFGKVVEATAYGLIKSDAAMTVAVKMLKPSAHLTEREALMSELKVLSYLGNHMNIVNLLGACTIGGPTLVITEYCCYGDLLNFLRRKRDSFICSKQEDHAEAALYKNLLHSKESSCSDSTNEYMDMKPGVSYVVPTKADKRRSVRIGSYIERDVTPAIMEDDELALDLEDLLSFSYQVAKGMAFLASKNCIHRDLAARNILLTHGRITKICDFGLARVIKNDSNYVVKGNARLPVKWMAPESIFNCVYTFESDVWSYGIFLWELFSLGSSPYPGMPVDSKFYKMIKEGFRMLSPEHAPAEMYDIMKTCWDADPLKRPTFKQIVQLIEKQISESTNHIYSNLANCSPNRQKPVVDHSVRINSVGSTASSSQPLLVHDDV

Cc1ccnc(Nc2cccc(-c3cnc(N4CCNC(=O)C45CC5)o3)c2)n1 [Compound 001, 4-{5-[3-(4-Methyl-pyrimidin-2-ylamino)-phenyl]-oxazol-2-yl}-4,7-diaza-spiro[2.5]octan-8-one]
IC50 (KIT D816V): 10 µM
IC50 (Btk): 20 µM
IL6 Cytokine Release (% relative to control Ag + SCF) (IL6; Ag + SCF + 0.01 μM of compound): 89%
IL6 Cytokine Release (Relative Fluorescence Units) (IL6; Ag + SCF + 0.01 μM of compound): 756.5 Relative Fluorescence Units
IL6 Cytokine Release (% relative to control Ag + SCF) (IL6; Ag + SCF + 0.1 μM of compound): 29%
IL6 Cytokine Release (Relative Fluorescence Units) (IL6; Ag + SCF + 0.1 μM of compound): 249 Relative Fluorescence Units
IL6 Cytokine Release (% relative to control Ag + SCF) (IL6; Ag + SCF + 1 μM of compound): 6%
IL6 Cytokine Release (Relative Fluorescence Units) (IL6; Ag + SCF + 1 μM of compound): 54 Relative Fluorescence Units
IC50 (IL6; Mus musculus, BMMC, Ag + SCF stimulated BMMCs, read-out: IL-6 release IC50): ~0.05 µM
Percentage of Eosinophils recruitment in Bronchio-alveolar lavage (BAL) (murine model of asthma; Experiment #2, 2 × 15 mg/kg/day PO): −14%
Percentage of Eosinophils recruitment in Bronchio-alveolar lavage (BAL) (murine model of asthma; Experiment #2, 2 × 30 mg/kg/day PO): −47%
ROS production, activity relative to doxorubicine (100%), Hu-CM (human cardiomyocytes): 0%
